This series is described as follows: gradient 5% acetonitrile 3 min, to 50% in 2 min, to 85% in 15 min, held 3 min, 100 µL/min. The following applies: column: Zorbax Extend-C18 2.1 x 50 mm; eluents: water / acetonitrile, 0.1% formic acid. A digest of the protocol:
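Retention times of pure standards were taken from adduct peaks that were selected by computer and manually inspected. Over 3 months, mixtures of ~100 molecules were run by HPLC–quadrupole time-of-flight mass spectrometry in positive and negative ionization mode. The Zorbax Extend-C18 column (2.1 × 50 mm, 1.8 μm) ran at 100 μL/min in water and acetonitrile, each containing 0.1% formic acid, with 40 μL dead volume and 900 μL dwell volume.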
In the case of `CC(C)n1c(CCNC(=O)c2cccc(Cl)c2)nc2cccnc21`, the RP-LC retention time amounted to 701 s.

`CCOC(=O)c1cccc(Nc2c(-c3ccc(OC)cc3)nc3cnccn23)c1` yielded an RP-LC retention time of 668 s.

For `O=c1c2sccc2n(Cc2nc(-c3ccccc3Cl)no2)c(=O)n1Cc1ccc(F)cc1`, the RP-LC retention time is 1110 s.

In the case of `COC(=O)CCc1sc(Nc2c(C)n[nH]c2C)nc1-c1ccc(OC)cc1`, the RP-LC retention time turned out to be 664 s.

With `Cc1cnc(C2CC2)n1CCNS(=O)(=O)Cc1ccccc1F`, the RP-LC retention time stood at 619 s.

As to `CC(=O)N1CCN(C(=O)CN2C(=O)C3CCCCN3c3ccc(S(=O)(=O)N(C)C)cc32)CC1` (stereo not given), the RP-LC retention time worked out at 680 s.

The compound `O=C(NCc1cccc(F)c1)c1cn2c(n1)CCCC2` showed an RP-LC retention time of 584 s.

`O=C(Nc1cccc([N+](=O)[O-])c1)C(=O)Nc1ccc2c(c1)N(C(=O)C1CC1)CCC2` yielded an RP-LC retention time of 883 s.

In the case of `CCOC(=O)c1ccc(CNC(=O)N2CCC(c3nc4ccncc4n3C)C2)cc1` (stereo not given), the RP-LC retention time stood at 557 s.

For the compound `Cc1cccnc1NC(=O)C1c2ccccc2C(=O)N(Cc2ccccc2)C12CCCC2` (stereo not given), the RP-LC retention time turned out to be 782 s.

As to `O=C(NCc1ccco1)c1ncoc1-c1ccccc1C(=O)N1CCCC1`, the RP-LC retention time worked out at 711 s.

In turn, `O=C(NCCc1csc(-c2ccccc2)n1)[C@H]1CCCN1C(=O)c1ccc(F)cc1` gave an RP-LC retention time of 812 s.

Compound `CN1c2cc(C(=O)NC3CCCC3)ccc2C(=O)N2CCCCC21` (stereo not given) displayed an RP-LC retention time of 767 s.

On to `CCOc1ccc(-c2ccc(=O)n(Cc3nc(-c4cccc(OCC)c4)no3)n2)cc1`, for which the RP-LC retention time was found to be 1150 s.

On to `N#Cc1ccc(-c2csc(NC(=O)c3ccc(Cl)cc3)n2)cc1`, for which the RP-LC retention time was 1140 s.

Turning to `Cc1cccc2c(C(N)=O)c3c(nc12)CCC3`, the RP-LC retention time was 560 s.

As to `CCCNC(=O)CC1=C2CCCCC2N(C)C1=O` (stereo not given), the RP-LC retention time was 638 s.

`CNC(=O)c1cc(N(C)C)nc2c(C)cccc12`: the RP-LC retention time stood at 557 s.

In the case of `CC1CCCN(S(=O)(=O)c2cc(C(=O)Nc3ccc(F)c(Cl)c3)n(C)c2)C1` (stereo not given), the RP-LC retention time was found to be 1170 s.

In the case of `COc1ccc(C(=O)NC2CCN(c3ccc(=O)n(C)n3)C2)c(OC)n1` (stereo not given), the RP-LC retention time is 742 s.

Regarding `COc1ccc(NC(=O)CN2CCc3[nH]c4c(C)ccc(F)c4c(=O)c3C2)cc1OC`, the RP-LC retention time was 1050 s.

As to `CC1OC2(CS1)CN1CCC2CC1` (stereo not given), the RP-LC retention time amounted to 619 s.

In turn, `CCOC(=O)c1c(C)nc(C)c(C(=O)OCC)c1-c1cccnc1` returned an RP-LC retention time of 810 s.

As for `O=C(Nc1nnc(SCc2nnc(-c3ccccc3)o2)s1)C1CCCCC1`, the RP-LC retention time was determined as 934 s.

Regarding `COc1ccccc1NC(=O)Cn1ccc2ccc(-c3nnc(C)o3)cc21`, the RP-LC retention time turned out to be 811 s.

With `COc1c(C(=O)Nc2ccc3c(c2)OCO3)sc2cc(Cl)ccc12`, the RP-LC retention time was found to be 1180 s.

On to `CCC(C(=O)NCCc1ccccc1)n1cnc2nc3c(cc2c1=O)CCCC3` (stereo not given), for which the RP-LC retention time is 785 s.

The compound `COc1ccccc1CCC(=O)N1CCc2cc(-c3csc(C)n3)ccc21` yielded an RP-LC retention time of 1090 s.

For the compound `CC(=O)Nc1ccc(Br)cc1C(=O)C(=O)NCCc1c[nH]c2ccccc12`, the RP-LC retention time stood at 876 s.

As for `O=C(NCc1cnoc1-c1ccc(F)cc1)c1ccc2c(c1)OCO2`, the RP-LC retention time was determined as 881 s.

With `COc1ccc(/C=C/c2cc(O)cc(OC3OC(CO)C(O)C(O)C3O)c2)cc1O` (stereo not given), the RP-LC retention time turned out to be 612 s.

`Cc1ccc(S(=O)(=O)c2cnc3cc4c(cc3c2N2CCOCC2)OCCO4)cc1` displayed an RP-LC retention time of 849 s.

`COc1ccc(-c2nc3cnccn3c2NCCC(=O)N2CCN(C(C)C)CC2)cc1` displayed an RP-LC retention time of 565 s.

On to `O=C(C1CCCCC1)N1CCN(c2nc(CN3CCOCC3)cs2)CC1`, for which the RP-LC retention time worked out at 617 s.

The compound `Cc1nc(C#Cc2cccnc2)cs1` came in with an RP-LC retention time of 747 s.

Turning to `O=C(CN1C(=O)CCCc2cc(S(=O)(=O)N3CCCC3)ccc21)Nc1ccc(Cl)cc1F`, the RP-LC retention time stood at 897 s.

On to `Cc1ccc(-c2noc(-c3nnc(NCCCN4CCOCC4)c4ccccc34)n2)cc1`, for which the RP-LC retention time is 735 s.

With `O=c1n(CC2CC2)nc2n1CCN(Cc1cccc(O)c1)C2`, the RP-LC retention time stood at 610 s.

`CCOc1ccc(NC(=O)c2oc3ccc(Cl)cc3c2C)c2cccnc12` had an RP-LC retention time of 789 s.

Regarding `CCOC(=O)c1c(C)c(CCC(=O)N2CCCCCC2)n(CC)c1C`, the RP-LC retention time came out at 985 s.

For `O=C(Cn1ccc2ccc(N3CCOCC3)nc21)NCc1ccc(F)cc1Cl`, the RP-LC retention time was 912 s.

For `CCN1C(=O)C2(CCN(S(=O)(=O)c3cccc(C(F)(F)F)c3)CC2)c2ccccc21`, the RP-LC retention time came out at 1120 s.

Consider `Cc1ccc(CN2CC(COc3cccnc3)C3(CCOCC3)C2)c(C)c1` (stereo not given), for which the RP-LC retention time stood at 591 s.

Consider `COC(=O)c1cc(C)nc2c1c(=O)n(Cc1ccc(OC)cc1)c(=O)n2C`, for which the RP-LC retention time turned out to be 953 s.

`CCCN1C(=O)c2n[nH]c(-c3ccco3)c2C1c1ccc(O)c(OC)c1` (stereo not given) gave an RP-LC retention time of 699 s.

`COc1ccc(N2C=C(C(=O)N3CCOCC3)S(=O)(=O)c3ccc(Cl)cc32)cc1Cl`: the RP-LC retention time amounted to 886 s.

The compound `CC(C)CCN1CCC(N2CCN(C(=O)c3cccs3)CC2)C1=O` (stereo not given) registered an RP-LC retention time of 567 s.

For `COc1cc(C(=O)Nc2cccc(-c3cn4cccnc4n3)c2)cc(OC)c1OC`, the RP-LC retention time was determined as 642 s.

`CC(C)Oc1ccc(-c2noc(Cn3c(=O)n(-c4ccccc4)c(=O)c4sccc43)n2)cc1` displayed an RP-LC retention time of 1100 s.

In turn, `CCOC(=O)c1[nH]c(C)c(CN(CC2CCCO2)C(=O)c2ccc(Cl)cc2)c1C` (stereo not given) gave an RP-LC retention time of 1000 s.

`Cc1cccc(NC(=O)c2[nH]c(C)c(S(=O)(=O)N3CCCC3)c2C)c1C` had an RP-LC retention time of 858 s.

As for `Cc1ccc(-n2c(=O)n(C)c(=O)c3cc(C(=O)Nc4ccc(F)cc4)cnc32)cc1`, the RP-LC retention time is 904 s.

Turning to `Cn1nc(-c2ccc(NC(=O)c3ccc([N+](=O)[O-])cc3Cl)cc2)ccc1=O`, the RP-LC retention time was found to be 714 s.

Turning to `Cc1ccc(-c2nc3nc(C)cc(C)n3c2Nc2ccccc2)cc1`, the RP-LC retention time is 726 s.

On to `Cc1ccc(-c2noc(Cn3ccn(-c4cc(C)ccc4C)c(=O)c3=O)n2)cc1`, for which the RP-LC retention time was found to be 950 s.

`O=C1NC(C(=O)Nc2ccc(F)cc2)Cn2cccc21` (stereo not given): the RP-LC retention time turned out to be 666 s.

On to `CC(C)(C)Cn1c(N)nc2ccc(-c3[nH]c(C(C)(C)C)nc3-c3ccc(F)cc3)nc21`, for which the RP-LC retention time amounted to 631 s.

Compound `COc1cc(C(=O)N2CCCC(C)(C(=O)NCc3ccc(C)cc3)C2)cc(OC)c1OC` (stereo not given) registered an RP-LC retention time of 820 s.

As for `CC(=O)c1cccc(NC(=O)C2CC(=O)N(c3ccc4c(c3)CCN4C(C)=O)C2)c1` (stereo not given), the RP-LC retention time came to 668 s.

`Cn1c(NC(=O)c2ccc(S(=O)(=O)N3CCOCC3)cc2)cc(=O)n(C)c1=O` displayed an RP-LC retention time of 612 s.

Take `CC(C)N(C(=O)Cn1c(CNC(=O)c2ccco2)nc2ccccc21)c1ccccc1`: the RP-LC retention time amounted to 698 s.

Take `CCCN(CC1CCOC1)C(=O)Nc1ccc(Cl)cc1C` (stereo not given): the RP-LC retention time is 639 s.

Compound `O=C(NCc1nn(Cc2ccccc2)c2ccccc12)c1ccoc1` displayed an RP-LC retention time of 870 s.

For the compound `COc1ncccc1C(=O)Nc1onc2c1CSC2`, the RP-LC retention time came to 642 s.

Compound `CCc1cccc(NS(=O)(=O)c2cc(-c3c(CC)noc3NC(C)=O)ccc2C)c1` came in with an RP-LC retention time of 900 s.

On to `O=C(NCc1ccc(F)c(Cl)c1)c1cn2c(n1)COCC2`, for which the RP-LC retention time stood at 690 s.

Take `COc1ccc(N2CC(c3noc(-c4cc(Cl)ccc4OC)n3)CC2=O)cc1` (stereo not given): the RP-LC retention time came out at 963 s.

With `COc1ccc(NC(=O)N2CCN(CCn3c(C(F)(F)F)nc4cccnc43)CC2)cc1`, the RP-LC retention time was 624 s.

`COc1ccc(-n2nc3c(N4CCCC(C(=O)NC5CCCC5)C4)nnc(C)c3c2C)cc1` (stereo not given) returned an RP-LC retention time of 696 s.

In turn, `CCOc1ccc(NS(=O)(=O)c2cc(C(=O)N3CCN(c4ccccc4)CC3)n[nH]2)cc1` returned an RP-LC retention time of 883 s.

With `Cc1noc(-c2ccnc(-n3cnc(C(=O)NCC(C)C)c3)c2)n1`, the RP-LC retention time turned out to be 773 s.

The compound `O=C(CN1C(=O)CCC1=O)Nc1nc(-c2ccc(Cl)cc2Cl)cs1` showed an RP-LC retention time of 850 s.

Take `CC(C(=O)Nc1ccccc1C(F)(F)F)n1cnc2nc3c(cc2c1=O)CCCC3` (stereo not given): the RP-LC retention time is 768 s.

As to `COc1ccc(CNC(=O)N2C[C@H](c3nc(-c4ccncc4)no3)[C@@H](C)C2)cc1`, the RP-LC retention time came to 732 s.

As for `O=C(Nc1ccc(NC(=O)N2CCC(C(=O)NCC3CC3)CC2)cc1)NC1CCCC1`, the RP-LC retention time worked out at 679 s.

`COc1cccc(NC(=O)N2CCC3(CC2)NC(=O)c2ccccc2O3)c1` showed an RP-LC retention time of 745 s.

As to `NC(=O)C1(N2CCCCC2)CCN(c2ncc(S(=O)(=O)c3ccccc3)c(N)n2)CC1`, the RP-LC retention time stood at 588 s.

`c1ccc(-n2nnc(-c3noc(-c4ccco4)n3)c2-c2ccncc2)cc1` returned an RP-LC retention time of 787 s.

For `O=C(c1ccco1)N1CCCC1c1nc(C2CCOCC2)no1` (stereo not given), the RP-LC retention time was 673 s.

Compound `CC(C)NC(=O)C1=CCN(C(=O)c2ccc(F)cc2)CC1` had an RP-LC retention time of 714 s.

Values taken from the METLIN SMRT retention time set (Domingo-Almenara et al. 2019).
